Drawing on PubChem BioAssay (NCI), this text covers TGI for eleven compounds.

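Assay format: 96-well plates, 48-hour exposure. TGI marks complete inhibition of growth.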 Some results are limits rather than exact numbers.

A word on the TGI: it is the concentration giving total growth inhibition.

Test systems include BT-549 breast; CAKI-1 renal; HOP-92 NSCLC; IGROV1 ovarian; KM12 colon; MDA-MB-435; MDA-N; MOLT-4 leukemia; NCI-H226 lung; NCI-H460 lung; NCI/ADR-RES ovarian; PC-3 prostate; SF-539 CNS; SNB-19 CNS; SR leukemia; SW-620 colon; T-47D breast; TK-10 renal; U251 CNS; UO-31 renal.
Test in all cases: DTP human tumour cell line panel, 48 h

For the compound `Cc1ccc2c(n1)NC(=O)C(Cc1ccccc1)(N=[N+]=[N-])C2=O` (centres undefined), the TGI in the test on BT-549 breast, in the test on CAKI-1 renal, with HOP-92 NSCLC, in the test with IGROV1 ovarian, in the test with KM12 colon and in the test with MDA-MB-435 was greater than 100 µM throughout. For the same compound, the TGI in the test with MDA-N, in the test on MOLT-4 leukemia, in the test with NCI-H226 lung, in the test on NCI-H460 lung, in the test on NCI/ADR-RES ovarian and in the test with PC-3 prostate was greater than 100 µM each time. The TGI in the test on SF-539 CNS, with SNB-19 CNS, in the test on SR leukemia, in the test on SW-620 colon, with T-47D breast and in the test with TK-10 renal was greater than 100 µM in each case. The TGI in the test on U251 CNS and with UO-31 renal was greater than 100 µM in each case.
As to `Clc1cc(OCc2nn3c(Cc4ccccc4)nnc3s2)c(Cl)cc1OCc1nn2c(Cc3ccccc3)nnc2s1`, the TGI is 95.9 µM with BT-549 breast; greater than 100 µM in the test with CAKI-1 renal; 61.2 µM in the test with HOP-92 NSCLC; greater than 100 µM in the test on IGROV1 ovarian; greater than 100 µM with KM12 colon; greater than 100 µM in the test on MDA-MB-435. Also, the TGI in the test on MDA-N is greater than 100 µM; with MOLT-4 leukemia, 19.8 µM; with NCI-H226 lung, greater than 100 µM; with NCI-H460 lung it was greater than 100 µM; with NCI/ADR-RES ovarian, greater than 100 µM; in the test with PC-3 prostate it was greater than 100 µM. The TGI in the test with SF-539 CNS is greater than 100 µM; with SNB-19 CNS it was 95.8 µM; in the test on SR leukemia it was 10.4 µM; in the test with SW-620 colon it was greater than 100 µM; with T-47D breast, greater than 100 µM; in the test with TK-10 renal it was greater than 100 µM. In addition, the TGI in the test on U251 CNS and in the test with UO-31 renal was greater than 100 µM throughout.
Regarding `O=C1C(c2c(O)[nH]c3ccc(Cl)cc23)=Nc2ccccc21`, the TGI was greater than 100 µM in the test with BT-549 breast; greater than 71.6 µM in the test with CAKI-1 renal; 29.5 µM with HOP-92 NSCLC; 19.3 µM in the test with IGROV1 ovarian; greater than 100 µM with KM12 colon; greater than 100 µM with MDA-MB-435. Besides, the TGI in the test with MDA-N is greater than 100 µM; with MOLT-4 leukemia, greater than 100 µM; with NCI-H226 lung, 37 µM; with NCI-H460 lung it was greater than 100 µM; in the test on NCI/ADR-RES ovarian, greater than 100 µM; in the test on PC-3 prostate it was greater than 28 µM. The TGI is 17.9 µM in the test with SF-539 CNS; greater than 81.4 µM in the test on SNB-19 CNS; greater than 100 µM with SR leukemia; greater than 100 µM with SW-620 colon; greater than 100 µM with T-47D breast; 18.8 µM with TK-10 renal. The TGI with U251 CNS was determined as 17.6 µM; with UO-31 renal, 2.25 µM.
With `O=[N+]([O-])C(C(Cl)=C(Cl)Cl)=C(n1nnc2ccccc21)n1nnc2ccccc21`, the TGI in the test with BT-549 breast was 99.6 µM; in the test with CAKI-1 renal, greater than 54.1 µM; in the test on HOP-92 NSCLC, greater than 81.6 µM; in the test on IGROV1 ovarian, 60.4 µM; with KM12 colon, greater than 70.1 µM; in the test on MDA-MB-435 it was 58.4 µM. Moreover, the TGI with MDA-N is 61.2 µM; in the test on MOLT-4 leukemia it was 26.2 µM; with NCI-H226 lung, greater than 73.9 µM; in the test with NCI-H460 lung, greater than 68.8 µM; in the test on NCI/ADR-RES ovarian, 55.9 µM; in the test on PC-3 prostate, greater than 67.3 µM. Moreover, the TGI in the test on SF-539 CNS is 53.3 µM; in the test on SNB-19 CNS it was greater than 100 µM; in the test with SR leukemia, 17.4 µM; in the test on SW-620 colon, 16.6 µM; in the test on T-47D breast, greater than 80.6 µM; in the test on TK-10 renal it was greater than 63.7 µM. Further, the concentration for total growth inhibition (TGI) stood at 62.8 µM with U251 CNS and 52.6 µM in the test with UO-31 renal.
Regarding `O=[N+]([O-])c1cccc(-c2cn3c(n2)Cc2ccccc2C3)c1`, the concentration for total growth inhibition (TGI) in the test with BT-549 breast was greater than 100 µM; with CAKI-1 renal, 58.2 µM; in the test on HOP-92 NSCLC it was greater than 100 µM; with IGROV1 ovarian, greater than 100 µM; in the test on KM12 colon it was greater than 100 µM; with MDA-MB-435 it was greater than 100 µM. The concentration for total growth inhibition (TGI) in the test on MDA-N, with MOLT-4 leukemia, with NCI-H226 lung, in the test with NCI-H460 lung, with NCI/ADR-RES ovarian and in the test with PC-3 prostate was greater than 100 µM throughout. The TGI in the test on SF-539 CNS, with SNB-19 CNS, in the test on SR leukemia, with SW-620 colon, with T-47D breast and with TK-10 renal was greater than 100 µM throughout. In addition, the TGI with U251 CNS and in the test with UO-31 renal was greater than 100 µM in each case.
With `N#Cc1c(N)nc(SCc2ccccc2)c(C#N)c1-c1ccc(O)cc1`, the TGI in the test on BT-549 breast was found to be 24.7 µM; in the test on CAKI-1 renal, 28.5 µM; in the test on HOP-92 NSCLC it was 22 µM; with IGROV1 ovarian it was 29.9 µM; in the test with KM12 colon, 25.8 µM; in the test with MDA-MB-435 it was 25.7 µM. The total growth inhibition concentration (TGI) in the test on MDA-N is 27.5 µM; with MOLT-4 leukemia, 23.1 µM; in the test with NCI-H226 lung, 48.2 µM; in the test on NCI-H460 lung it was greater than 65.8 µM; in the test with NCI/ADR-RES ovarian, 45.7 µM; in the test on PC-3 prostate it was 33.6 µM. For the same compound, the TGI in the test on SF-539 CNS was 57.5 µM; with SNB-19 CNS, 41.6 µM; with SR leukemia, 34.7 µM; with SW-620 colon it was 41.6 µM; in the test on T-47D breast it was 23.4 µM; in the test on TK-10 renal, greater than 64.7 µM. Further, the TGI in the test on U251 CNS came to 30.5 µM; with UO-31 renal it was 3.9 µM.
With `Cc1cccc(Nc2nc3ccccc3nc2NS(=O)(=O)c2ccccc2)c1`, the TGI in the test with BT-549 breast is greater than 100 µM; in the test with CAKI-1 renal it was greater than 100 µM; with HOP-92 NSCLC, 63.7 µM; in the test on IGROV1 ovarian it was greater than 100 µM; with KM12 colon, greater than 100 µM; with MDA-MB-435 it was greater than 100 µM. In addition, the TGI in the test with MDA-N was greater than 100 µM; in the test on MOLT-4 leukemia, 61.6 µM; in the test with NCI-H226 lung it was greater than 100 µM; in the test on NCI-H460 lung it was 51.4 µM; in the test with NCI/ADR-RES ovarian, greater than 100 µM; with PC-3 prostate, 72 µM. Further, the TGI in the test on SF-539 CNS was greater than 100 µM; in the test with SNB-19 CNS, 91.5 µM; with SR leukemia, greater than 100 µM; in the test on SW-620 colon, greater than 100 µM; in the test with T-47D breast it was greater than 100 µM; in the test on TK-10 renal it was greater than 100 µM. The TGI with U251 CNS and in the test with UO-31 renal was 59 µM throughout.
For `COC(=O)c1sc2c(c1C(=O)OC)C(=NC(C)(C)C)SC2=NC(C)(C)C`, the TGI in the test with BT-549 breast stood at 35.4 µM; in the test on CAKI-1 renal it was 32.6 µM; in the test with HOP-92 NSCLC, 35.4 µM; in the test with IGROV1 ovarian it was 36.2 µM; in the test on KM12 colon it was 33.8 µM; with MDA-MB-435, 34.6 µM. The TGI with MDA-N came out at 34 µM; with MOLT-4 leukemia, 31.8 µM; in the test with NCI-H226 lung it was 34.9 µM; in the test on NCI-H460 lung, 34.9 µM; in the test on NCI/ADR-RES ovarian it was 42.7 µM; with PC-3 prostate it was 37 µM. The total growth inhibition concentration (TGI) is 34.1 µM in the test with SF-539 CNS; 35.8 µM in the test on SNB-19 CNS; 33.8 µM in the test on SR leukemia; 35.4 µM in the test with SW-620 colon; 31.4 µM with T-47D breast; 33.2 µM in the test with TK-10 renal. The values for the TGI in the test with U251 CNS and with UO-31 renal were 32.3 µM and 2.43 µM, respectively.
As for `O=C1N/C(=N\N=C\c2ccccc2)C2(CCCCC2)O1`, the TGI in the test with BT-549 breast, in the test with CAKI-1 renal, in the test with HOP-92 NSCLC, in the test on IGROV1 ovarian, with KM12 colon and with MDA-MB-435 was greater than 100 µM throughout. Further, the TGI with MDA-N, in the test on MOLT-4 leukemia, in the test with NCI-H226 lung, in the test with NCI-H460 lung, with NCI/ADR-RES ovarian and in the test with PC-3 prostate was greater than 100 µM in each case. The TGI in the test on SF-539 CNS was greater than 100 µM; with SNB-19 CNS, greater than 100 µM; in the test with SR leukemia, 76.4 µM; in the test with SW-620 colon, greater than 100 µM; in the test on T-47D breast, greater than 100 µM; with TK-10 renal, greater than 100 µM. For the same compound, the TGI in the test on U251 CNS and in the test with UO-31 renal was greater than 100 µM in each case.
`NNC(=O)c1cc([N+](=O)[O-])ccc1NC(=O)C12CC3CC(CC(C3)C1)C2`: the TGI in the test on BT-549 breast was greater than 100 µM; in the test on CAKI-1 renal, greater than 100 µM; with HOP-92 NSCLC, 51.7 µM; in the test with IGROV1 ovarian it was 8.53 µM; in the test with KM12 colon it was greater than 100 µM; with MDA-MB-435, 48.5 µM. The TGI is greater than 100 µM in the test with MDA-N; greater than 100 µM with MOLT-4 leukemia; 40.3 µM in the test with NCI-H226 lung; 62.8 µM in the test on NCI-H460 lung; 49.2 µM with NCI/ADR-RES ovarian; greater than 100 µM in the test on PC-3 prostate. Moreover, the TGI in the test with SF-539 CNS is 50.1 µM; in the test with SNB-19 CNS it was 21.4 µM; with SR leukemia, 55.6 µM; with SW-620 colon, greater than 100 µM; in the test with T-47D breast it was 72.2 µM; in the test with TK-10 renal it was 59.5 µM. For the same compound, the TGI in the test with U251 CNS was 37.7 µM; in the test on UO-31 renal, 31.5 µM.
Turning to `O=C1C=C(NCC(c2ccccc2)c2ccccc2)C(=O)c2ncccc21`, the concentration for total growth inhibition (TGI) in the test on BT-549 breast amounted to 5.09 µM; in the test with CAKI-1 renal, 11.4 µM; in the test on HOP-92 NSCLC, 12.9 µM; with IGROV1 ovarian, 8.82 µM; with KM12 colon, 16.5 µM; in the test on MDA-MB-435, 2.84 µM. Also, the TGI in the test with MDA-N was determined as 3.38 µM; in the test with MOLT-4 leukemia, 6.91 µM; in the test on NCI-H226 lung it was 9.71 µM; in the test with NCI-H460 lung, 1.92 µM; in the test with NCI/ADR-RES ovarian, 8.05 µM; with PC-3 prostate, 6.24 µM. Moreover, the TGI is 8.55 µM in the test with SF-539 CNS; 9.62 µM in the test on SNB-19 CNS; 4.87 µM with SR leukemia; 13.4 µM in the test on T-47D breast; 51.5 µM with TK-10 renal; 11.4 µM in the test with U251 CNS. The compound further came in with a TGI in the test on UO-31 renal of 12.2 µM.
